≈ marks a conversion by molar mass, not a printed value. Where two headings read alike, the source gives them in different places. Blank lines part the entries; values can stand above or below the compound they belong to.
Assays:
[1] = test system: Plasmodium falciparum NF54 (chloroquine-sensitive); experiment: Antiplasmodial [3H] hypoxanthine incorporation assay, NF54 strain; format: cell-based; conditions: for IC50: Plasmodium falciparum
Text: (§1) The antiplasmodial testing of the extracts was run in duplicate. The method was based upon the [^3H] hypoxanthine incorporation assay, as described by Desjardins and modified by Ridley and the data fitted to generate IC50 and IC90 values, corresponding to the concentrations required to cause 50 and 90% inhibition of parasite growth respectively. The Plasmodium falciparum clones used for the testing were W-2 and D-6. W-2 strain otherwise known as the Indochina clone is known to be resistant to chloroquine, pyrimethamine, sulfadoxine and quinine. Meanwhile the D-6 otherwise known as the Sierra Leonian clone is resistant to mefloquine but sensitive to the above named drugs. Chloroquine, quinine and artesunate were used as reference drugs. […] Compounds 1 and 2 (due to their quantity) were subsequently tested against T. cruzi, L. donovani and T. b. rhodensiense, parasites responsible for Chagas disease, leishmaniasis and human African trypanosomiasis (sleeping sickness) respectively with Benznidazole, Miltefosine and Melarsoprol included as reference drugs. Cytotoxicity was evaluated using HT-29 (human […] carcinoma) with podophyllotoxin as reference drug.
(§2) The crude S. striatinux extracts (MeOH and CH2Cl2) were tested at the Walter Reed Army Institute of Research (WRAIR), Washington. DC. […] The method used for antiplasmodial testing, was based upon [^3H] hypoxanthine incorporation assay, previously described in the literature. Both chloroquine-sensitive (NF54, D6) and chloroquine-resistant (K1, W2) strains and chloroquine, quinine and artesunate used as positive references. L. donovani MHOM-ET-67/L82 (obtained from the spleen of an infected hamster and grown in axenic cultures) was used for the antileishmanial testing while T. brucei squib 427 strain (suramin-sensitive) was used for the antitrypanosomal testing. Cytotoxicity test was done using HT-29 (human […] carcinoma), with podophyllotoxin included as reference drug at a concentration of 0.1 μg/mL.

[2] = test system: Plasmodium falciparum D-6 (chloroquine-sensitive, Sierra Leonian clone); experiment: Antiplasmodial [3H] hypoxanthine incorporation assay, D6 clone; format: cell-based
Text: as §1, §2

[3] = test system: Plasmodium falciparum W-2 (chloroquine-resistant, Indochina clone); experiment: Antiplasmodial [3H] hypoxanthine incorporation assay, W2 clone; format: cell-based
Text: as §1, §2

[4] = Kinetic solubility, turbidimetric method (nephelometry); format: physicochemical; conditions: kinetic from dmso stock, 1% DMSO
Procedure: The solubility of the compounds was estimated via the turbidimetric method using standard test buffers (pH 2.0 and pH 6.5) as previously described. […] There was no significant change in ionization in the molecule across this pH range.
(§3) The kinetic solubility of test compounds was examined by spiking compound in DMSO into either pH 6.5 phosphate buffer or 0.01 M HCl (approximately pH 2.0) with the final DMSO concentration being 1%. Samples were then analysed via nephelometry to determine a solubility range [23]. Effective log D values were measured using a chromatographic method employing a SUPELCOSIL LC-ABZ column using an octanol saturated mobile phase at pH 7.4 [23]. Theoretical physicochemical values were determined using the ACD logD suite of software programs. The molecular weight (MW) should ideally be ≤500 for good membrane permeability, while the hydrogen bond donor/acceptor properties should be respectively ≤5 and ≤10 respectively. The number of single bonds that are not in a ring or constrained system and are not bonded to a hydrogen atom (often referred to as the number of rotatable single bonds) should be ≤10 for acceptable oral bioavailability. The polar surface area (PSA) was calculated using a simplified 2-dimensional modeling approach, which has been validated against a more sophisticated 3-dimentional modeling strategy. For acceptable oral drug absorption and membrane permeability, the PSA value should be ≤120 Å^2. […] The 1-octanol/water partition coefficient were calculated for ionisable compounds. The values were calculated on the basis of log P and pKa values. Log D values are quoted with respect to a relevant pH, thereby providing a partition coefficient profile under physiologically relevant conditions.

T. cruzi = experiment: Antitrypanosomal testing, T. cruzi; format: cell-based, Trypanosoma cruzi; conditions: calculated versus cytotoxicity (HT-29)
Text: as §1
(§4) The crude S. striatinux extracts (MeOH and CH2Cl2) were tested at the Walter Reed Army Institute of Research (WRAIR), Washington. DC. […]

[5] = Chromatographic eLogD technique; format: physicochemical; conditions: for chromatographic logD: SUPELCOSIL LC-ABZ column with octanol saturated mobile phase, pH 7.4
Procedure: The partition coefficients of the two compounds were measured via the previously described chromatographic technique. […] The LogD7.4 value for compound 2 of 0.35 is towards the lower end of the scale normally associated with “drug-like” molecules. […] For compound 2, parameters were also calculated for its terminal aldehyde tautomer, 2a, which is presumed to be the major form of the compound. The overall calculated parameters fall within the ranges associated with “drug-like” molecules.
as §3

[6] = test system: Plasmodium falciparum K1 (chloroquine-resistant); experiment: Antiplasmodial [3H] hypoxanthine incorporation assay, K1 strain; format: cell-based; conditions: P. falciparum K1, results from STI
Text: as §1, §4

T. b. rhodesiense = experiment: Antitrypanosomal testing, T. b. rhodesiense; format: cell-based, Trypanosoma brucei rhodesiense; conditions: calculated versus cytotoxicity (HT-29)
Text: as §1, §4

[7] = test system: L. donovani MHOM-ET-67/L82; experiment: Antileishmanial testing; format: cell-based, Leishmania donovani; conditions: calculated versus cytotoxicity (HT-29)
Text: as §1, §4

[8] = Metabolic stability in human liver microsomes; format: in vitro ADME; conditions: for Metabolites detected: LCMS; for microsomal CLint at 2 µM: NADPH dependent degradation, 37 °C, read-out: In vitro CL int; for Microsome predicted E H (hepatic extraction ratio): Q = 20.7 mL/min/kg; for CLint scaled at 2 µM: scaled from in vitro CL int, read-out: Microsome predicted CL int
Text: The objective here was to determine the in vitro metabolic stability of these two compounds using human liver microsomes as a preliminary indication of their likely in vivo metabolic clearance and potential metabolic products. The method used was as outlined in Obach. […] The compounds maybe susceptible to […] in more complicated test systems based on their structure, since both compounds 1 and 2 contain an α, β-unsaturated ketone moiety with the potential to act as a Michael acceptor (by forming adducts with endogenous nucleophiles such as glutathione). However, this was not investigated and would be the subject of future studies in which we hope to use a simple chemical system (i.e., in aqueous buffer containing free glutathione) or examining the extent of degradation in whole blood.
Test compounds (2 µM) were incubated at 37 °C with human liver microsomes [purchased from BD Gentest (Woburn, MA) using microsome lot # 41207]. The reaction was initiated by the addition of an NADPH-regenerating system (i.e. NADPH is the cofactor required for CYP450-mediated metabolism) and quenched at various time points over the incubation period by the addition of acetonitrile. Additional samples co-activated by NADPH and UDPGA (the co-factor for glucoronidation), were included in the incubation for the qualitative assessment of the potential for glucoronide formation. The relative loss of parent compound and formation of metabolic products was determined using a single quadrupole LCMS instrument (Waters, Manchester, UK).
Test compound concentration versus time data was fitted to an exponential decay function to determine the first-order rate constant for substrate depletion (k). Each substrate depletion rate constant was then used to calculate: (1) an initial in vitro clearance value (in vitro, CL int,in vitro); (2) an intrinsic clearance value (CL int); and (3) a hepatic extraction ratio (E H)1 CLint,invitro=k/microsomalproteincontent(0.4mgprotein/mL) 2 CLint=CLint,invitro×livermass(g)/bodyweight(kg)×45mgmicrosomalprotein/glivermass 3 EH=CLint/Q+CLint For Eqs.

[9] = P. falciparum NF54, results from STI, read-out: IC50 NF54
[10] = aqueous buffer, pH 6.5 phosphate buffer, read-out: Solubility pH 6.5
[11] = simulated gastric fluid, pH 2 (0.01 M HCl), read-out: Solubility pH 2
[12] = P. falciparum D6, mean of 2–3 determinations, results from WRAIR, read-out: IC50 D6
[13] = P. falciparum W2, mean of 2–3 determinations, results from WRAIR, read-out: IC50 W2

IC50 [1, 9]: 0.0019 µg/mL (≈ 0.00494 µM)
Structure (SMILES): C[C@H]1[C@H](OC(=O)CCC(=O)O)O[C@@H]2O[C@@]3(C)CC[C@H]4[C@H](C)CC[C@@H]1[C@@]24OO3 [Artesunate, reference compound]

Structure (SMILES): CCN(CC)CCCC(C)Nc1ccnc2cc(Cl)ccc12 (centres unmarked) [Chloroquine, reference compound]
IC50 ([2]; D6, read-out: IC50 D6): 0.003 µg/mL (≈ 0.00938 µM)
IC50 ([1]; NF54, read-out: IC50 NF54): 0.0023 µg/mL (≈ 0.00719 µM)
IC50 ([3]; W2, read-out: IC50 W2): 0.084 µg/mL (≈ 0.263 µM)

solubility [4, 10]: > 100 µg/mL
solubility [4, 11]: > 100 µg/mL
elogD pH 7.4 [5]: 1.71
chromatographic logD [5]: 1.71
IC50 [6]: 0.661 µg/mL (≈ 2.48 µM)
IC50 [2, 12]: 0.195 µg/mL (≈ 0.732 µM)
IC50 [1, 9]: 0.304 µg/mL (≈ 1.14 µM)
IC50 [3, 13]: 0.268 µg/mL (≈ 1.01 µM)
Metabolites detected [8]: None detected
microsomal CLint at 2 µM [8]: 12.3 µL/min/mg
Microsome predicted E H (hepatic extraction ratio) [8]: 0.41
CLint scaled at 2 µM [8]: 14.3 mL/min/kg
Structure (SMILES): C/C(=C\CO)[C@H]1C[C@H]2C(C)(C)C(=O)C=C[C@]2(C)OO1 [Compound 1, okundoperoxide]
SI (selective index) T. cruzi (T. cruzi): 1
SI (selective index) T. b. rhod (T. b. rhodesiense): 3.4
SI (selective index) L. donovani [7]: 11.4

solubility [4, 10]: > 100 µg/mL
solubility [4, 11]: 50 to 100 µg/mL (≈ 188 to 375 µM)
elogD pH 7.4 [5]: 0.35
chromatographic logD [5]: 0.35
IC50 [6]: 0.511 µg/mL (≈ 1.92 µM)
IC50 [2, 12]: 0.267 µg/mL (≈ 1 µM)
IC50 [1, 9]: 0.439 µg/mL (≈ 1.65 µM)
IC50 [3, 13]: 0.354 µg/mL (≈ 1.33 µM)
Metabolites detected [8]: None detected
microsomal CLint at 2 µM [8]: 7.4 µL/min/mg
Microsome predicted E H (hepatic extraction ratio) [8]: 0.29
CLint scaled at 2 µM [8]: 8.6 mL/min/kg
Structure (SMILES): C/C(=C\CO)C(=O)C[C@H]1C(C)(C)C(=O)C=C[C@]1(C)O [Compound 2, sclerienone C]
SI (selective index) T. cruzi (T. cruzi): 0.74
SI (selective index) T. b. rhod (T. b. rhodesiense): 8.3
SI (selective index) L. donovani [7]: 5.9

IC50 [2, 12]: 0.539 µg/mL (≈ 1.28 µM)
IC50 [1, 9]: > 1 µg/mL
IC50 [3, 13]: 0.46 µg/mL (≈ 1.09 µM)
Structure (SMILES): CCCCCCCCCC(=O)OC/C=C(\C)C(=O)C[C@H]1C(C)(C)C(=O)C=C[C@]1(C)O [Compound 3]

IC50 [1, 9]: > 1 µg/mL
Structure (SMILES): C=CC(C)(O)C(=O)C[C@H]1C(C)(C)C(=O)C=C[C@]1(C)O (some centres unmarked) [Compound 4]

IC50 NF54 ([1]; P. falciparum NF54, results from STI): >1 µg/mL
Structure (SMILES): C=CC(C)(O)C(=O)C[C@H]1C(C)(C)C(=O)C=C[C@]1(C)O (some centres unmarked) [Compound 5]

IC50 [2, 12]: 0.483 µg/mL (≈ 1.81 µM)
IC50 [1, 9]: > 1 µg/mL
IC50 [3, 13]: 0.47 µg/mL (≈ 1.76 µM)
Structure (SMILES): C=CC(C)(O)C1C[C@H]2C(C)(C)C(=O)C=C[C@]2(C)OO1 (some centres unmarked) [Compound 6]

IC50 [2, 12]: 0.027 µg/mL (≈ 0.0832 µM)
IC50 [3, 13]: 0.097 µg/mL (≈ 0.299 µM)
Structure (SMILES): C=C[C@H]1C[N@@]2CC[C@H]1C[C@H]2[C@H](O)c1ccnc2ccc(OC)cc12 [Quinine, reference compound]

Source: paper PMC5481270, “Antiparasitic Sesquiterpenes from the Cameroonian Spice Scleria striatinux and Preliminary In Vitro and In Silico DMPK Assessment” (Natural Products and Bioprospecting, 2017)
